Patent US12552783B2, “Modulators of proteolysis and associated methods of use” (Arvinas Operations, Inc., priority 2018, dated 2026)

Target: KRas (Homo sapiens, UniProt P01116, G12C)
Experiment: KRas degradation in NCI-H2030 cells by Western blot, normalized to GAPDH (data of Table 14)
Format: cell-based
Parameters: host or cells: NCI-H2030
Conditions: for Percent Degradation at Indicated Concentration (μM): H2030; for Dmax: NCI-H2030
In short: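 Degradation of endogenous homozygous G12C KRas is measured by immunoblot after serum starvation and compound exposure at three final concentrations (0.3, 1 and 3 μM). VHL-recruiting compounds are incubated 24 h and all others 72 h. Percent loss is calculated from GAPDH-normalized KRas relative to vehicle.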

Row | Compound | Percent Degradation at Indicated Concentration (μM) (0.3 μM) | Percent Degradation at Indicated Concentration (μM) (1 μM) | Percent Degradation at Indicated Concentration (μM) (3 μM) | Dmax [%]
1 | C=CC(=O)N1CCN(c2nc(NCCC(=O)N(C)CCOCCOCCOCCOc3ccc4c(c3)C(=O)N(C3CCC(=O)NC3=O)C4=O)nc3c(F)c(-c4c(O)cccc4F)c(Cl)cc23)CC1 [compound 73, 3-(((S)-4-(4-acryloylpiperazin-1-yl)-6-chloro-8-fluoro-7-(2-fluoro-6-hydroxyphenyl)quinazolin-2-yl)amino)-N-(2-(2-(2-(2-((2-(2,6-dioxopiperidin-3-yl)-1,3-dioxoisoindolin-5-yl)oxy)ethoxy)ethoxy)ethoxy)ethyl)-N-methylpropanamide] | C (Percent Degradation: C ≤ 35) | C (Percent Degradation: C ≤ 35) | C (Percent Degradation: C ≤ 35) | ≤ 35
2 | C=CC(=O)N1CCN(c2nc(NCCC(=O)N(C)CCOCCOCCOCCOCCOc3ccc4c(c3)C(=O)N(C3CCC(=O)NC3=O)C4=O)nc3c(F)c(-c4c(O)cccc4F)c(Cl)cc23)CC1 [compound 75, 3-(((S)-4-(4-acryloylpiperazin-1-yl)-6-chloro-8-fluoro-7-(2-fluoro-6-hydroxyphenyl)quinazolin-2-yl)amino)-N-(14-((2-(2,6-dioxopiperidin-3-yl)-1,3-dioxoisoindolin-5-yl)oxy)-3,6,9,12-tetraoxatetradecyl)-N-methylpropanamide] | C (Percent Degradation: C ≤ 35) | C (Percent Degradation: C ≤ 35) | C (Percent Degradation: C ≤ 35) | ≤ 35
3 | C=CC(=O)N1CCN(c2nc(NCCC(=O)N(C)CCOCCOc3ccc4c(c3)CN(C3CCC(=O)NC3=O)C4=O)nc3c(F)c(-c4c(O)cccc4F)c(Cl)cc23)CC1 [compound 89, 3-((4-(4-acryloylpiperazin-1-yl)-6-chloro-8-fluoro-7-((S)-2-fluoro-6-hydroxyphenyl)quinazolin-2-yl)amino)-N-(2-(2-((2-(2,6-dioxopiperidin-3-yl)-1-oxoisoindolin-5-yl)oxy)ethoxy)ethyl)-N-methylpropanamide] | C (Percent Degradation: C ≤ 35) | C (Percent Degradation: C ≤ 35) | C (Percent Degradation: C ≤ 35) | ≤ 35
4 | C=CC(=O)N1CCN(c2nc(NCCC(=O)N(C)CCOCCOCCOCCOc3ccc4c(c3)CN(C3CCC(=O)NC3=O)C4=O)nc3c(F)c(-c4c(O)cccc4F)c(Cl)cc23)CC1 [compound 93, 3-((4-(4-acryloylpiperazin-1-yl)-6-chloro-8-fluoro-7-((S)-2-fluoro-6-hydroxyphenyl)quinazolin-2-yl)amino)-N-(2-(2-(2-(2-((2-(2,6-dioxopiperidin-3-yl)-1-oxoisoindolin-5-yl)oxy)ethoxy)ethoxy)ethoxy)ethyl)-N-methylpropanamide] | C (Percent Degradation: C ≤ 35) | C (Percent Degradation: C ≤ 35) | C (Percent Degradation: C ≤ 35) | ≤ 35
5 | C=CC(=O)N1CCN(c2nc(NCCC(=O)N(C)CCOCCOCCOCCOCCOc3ccc4c(c3)CN(C3CCC(=O)NC3=O)C4=O)nc3c(F)c(-c4c(O)cccc4F)c(Cl)cc23)CC1 [compound 95, 3-(((S)-4-(4-acryloylpiperazin-1-yl)-6-chloro-8-fluoro-7-(2-fluoro-6-hydroxyphenyl)quinazolin-2-yl)amino)-N-(14-((2-(2,6-dioxopiperidin-3-yl)-1-oxoisoindolin-5-yl)oxy)-3,6,9,12-tetraoxatetradecyl)-N-methylpropanamide] | C (Percent Degradation: C ≤ 35) | C (Percent Degradation: C ≤ 35) | C (Percent Degradation: C ≤ 35) | ≤ 35
6 | C=CC(=O)N1CCN(c2nc(NCCC(=O)N(C)CCNc3cccc4c3C(=O)N(C3CCC(=O)NC3=O)C4=O)nc3c(F)c(-c4c(O)cccc4F)c(Cl)cc23)CC1 [compound 107, 3-(((S)-4-(4-acryloylpiperazin-1-yl)-6-chloro-8-fluoro-7-(2-fluoro-6-hydroxyphenyl)quinazolin-2-yl)amino)-N-(2-((2-(2,6-dioxopiperidin-3-yl)-1,3-dioxoisoindolin-4-yl)amino)ethyl)-N-methylpropanamide] | – | – | C (Percent Degradation: C ≤ 35) | –
7 | C=CC(=O)N1CCN(c2nc(NCCC(=O)N(C)CCNc3cccc4c3C(=O)N(C3CCC(=O)NC3=O)C4=O)nc3c(F)c(-c4c(O)cccc4F)c(Cl)cc23)CC1 [compound 108, 3-(((R)-4-(4-acryloylpiperazin-1-yl)-6-chloro-8-fluoro-7-(2-fluoro-6-hydroxyphenyl)quinazolin-2-yl)amino)-N-(2-((2-(2,6-dioxopiperidin-3-yl)-1,3-dioxoisoindolin-4-yl)amino)ethyl)-N-methylpropanamide] | C (Percent Degradation: C ≤ 35) | C (Percent Degradation: C ≤ 35) | C (Percent Degradation: C ≤ 35) | ≤ 35
8 | C=CC(=O)N1CCN(c2nc(NCCC(=O)N(C)CCOCCNc3cccc4c3C(=O)N(C3CCC(=O)NC3=O)C4=O)nc3c(F)c(-c4c(O)cccc4F)c(Cl)cc23)CC1 [compound 109, 3-(((S)-4-(4-acryloylpiperazin-1-yl)-6-chloro-8-fluoro-7-(2-fluoro-6-hydroxyphenyl)quinazolin-2-yl)amino)-N-(2-(2-((2-(2,6-dioxopiperidin-3-yl)-1,3-dioxoisoindolin-4-yl)amino)ethoxy)ethyl)-N-methylpropanamide] | C (Percent Degradation: C ≤ 35) | C (Percent Degradation: C ≤ 35) | C (Percent Degradation: C ≤ 35) | ≤ 35
9 | C=CC(=O)N1CCN(c2nc(NCCC(=O)N(C)CCOCCOCCNc3cccc4c3C(=O)N(C3CCC(=O)NC3=O)C4=O)nc3c(F)c(-c4c(O)cccc4F)c(Cl)cc23)CC1 [compound 111, 3-(((S)-4-(4-acryloylpiperazin-1-yl)-6-chloro-8-fluoro-7-(2-fluoro-6-hydroxyphenyl)quinazolin-2-yl)amino)-N-(2-(2-(2-((2-(2,6-dioxopiperidin-3-yl)-1,3-dioxoisoindolin-4-yl)amino)ethoxy)ethoxy)ethyl)-N-methylpropanamide] | C (Percent Degradation: C ≤ 35) | C (Percent Degradation: C ≤ 35) | C (Percent Degradation: C ≤ 35) | ≤ 35
10 | C=CC(=O)N1CCN(c2nc(NCCC(=O)N(C)CCOCCOCCOCCNc3cccc4c3C(=O)N(C3CCC(=O)NC3=O)C4=O)nc3c(F)c(-c4c(O)cccc4F)c(Cl)cc23)CC1 [compound 113, 3-(((S)-4-(4-acryloylpiperazin-1-yl)-6-chloro-8-fluoro-7-(2-fluoro-6-hydroxyphenyl)quinazolin-2-yl)amino)-N-(2-(2-(2-(2-((2-(2,6-dioxopiperidin-3-yl)-1,3-dioxoisoindolin-4-yl)amino)ethoxy)ethoxy)ethoxy)ethyl)-N-methylpropanamide] | C (Percent Degradation: C ≤ 35) | C (Percent Degradation: C ≤ 35) | C (Percent Degradation: C ≤ 35) | ≤ 35
11 | C=CC(=O)N1CCN(c2nc(NCCC(=O)N(C)CCOCCOCCOCCOCCNc3cccc4c3C(=O)N(C3CCC(=O)NC3=O)C4=O)nc3c(F)c(-c4c(O)cccc4F)c(Cl)cc23)CC1 [compound 115, 3-(((S)-4-(4-acryloylpiperazin-1-yl)-6-chloro-8-fluoro-7-(2-fluoro-6-hydroxyphenyl)quinazolin-2-yl)amino)-N-(14-((2-(2,6-dioxopiperidin-3-yl)-1,3-dioxoisoindolin-4-yl)amino)-3,6,9,12-tetraoxatetradecyl)-N-methylpropanamide] | – | – | C (Percent Degradation: C ≤ 35) | –
12 | C=CC(=O)N1CCN(c2nc(NCCC(=O)N(C)CCOCCOCCOCCOCCNc3cccc4c3C(=O)N(C3CCC(=O)NC3=O)C4=O)nc3c(F)c(-c4c(O)cccc4F)c(Cl)cc23)CC1 [compound 116, 3-(((R)-4-(4-acryloylpiperazin-1-yl)-6-chloro-8-fluoro-7-(2-fluoro-6-hydroxyphenyl)quinazolin-2-yl)amino)-N-(14-((2-(2,6-dioxopiperidin-3-yl)-1,3-dioxoisoindolin-4-yl)amino)-3,6,9,12-tetraoxatetradecyl)-N-methylpropanamide] | C (Percent Degradation: C ≤ 35) | C (Percent Degradation: C ≤ 35) | C (Percent Degradation: C ≤ 35) | ≤ 35
13 | CN(CCOCCOCCOCCNc1cccc2c1C(=O)N(C1CCC(=O)NC1=O)C2=O)C(=O)CCNc1nc(N2CCN(C(N)=O)CC2)c2cc(Cl)c(-c3c(O)cccc3F)c(F)c2n1 [compound 146, 4-((7S)-6-chloro-2-((1-((2-(2,6-dioxopiperidin-3-yl)-1,3-dioxoisoindolin-4-yl)amino)-12-methyl-13-oxo-3,6,9-trioxa-12-azapentadecan-15-yl)amino)-8-fluoro-7-(2-fluoro-6-hydroxyphenyl)quinazolin-4-yl)piperazine-1-carboxamide] | C (Percent Degradation: C ≤ 35) | C (Percent Degradation: C ≤ 35) | C (Percent Degradation: C ≤ 35) | ≤ 35
